Assay results published in ChEMBL document CHEMBL3044972, “Synthesis, anti-inflammatory, and cytotoxicity evaluation of 9,10-dihydroanthracene-9,10-,-succinimide and bis-succinimide derivatives” (2013).

Each molecule was assayed on HepG2 (assay: Cytotoxicity against Homo sapiens (human) HepG2 cells assessed as growth inhibition at 10 uM after 48 hr by SRB assay). Settings: HepG2, 48 h, read-out: GI.
Type: functional
With `O=C1C2C3c4ccccc4C(c4ccccc43)C2C(=O)N1CCCCN1C(=O)C2C3c4ccccc4C(c4ccccc43)C2C1=O` (stereo unspecified) the inhibition of growth at 10 µM was 25%.
`O=C1C2C3c4ccccc4C(c4ccccc43)C2C(=O)N1CCN1CCCC1` (stereo unspecified) was tested, and the inhibition of growth at 10 µM was 47%.
`O=C1C2C3c4ccccc4C(c4ccccc43)C2C(=O)N1CC1CCNCC1` (stereo unspecified) was tested, and the inhibition of growth at 10 µM was 32%.
In the case of `O=C1C2C3c4ccccc4C(c4ccccc43)C2C(=O)N1Nc1ccccn1` (stereo unspecified), the inhibition of growth at 10 µM is reported as 37%.
Molecule `O=P1(N(CCCl)CCCl)NCCCO1` (stereo unspecified) [CYCLOPHOSPHAMIDE ANHYDROUS] has an inhibition of growth at 10 µM of 14%.
`O=C1C2C3c4ccccc4C(c4ccccc43)C2C(=O)N1CN1CCOCC1` (stereo unspecified) gave an inhibition of growth at 10 µM of 34%.
With `O=c1[nH]cc(F)c(=O)[nH]1` [FLUOROURACIL] the inhibition of growth at 10 µM was 28%.
Work on `O=C1C2C3c4ccccc4C(c4ccccc43)C2C(=O)N1Cc1ccncc1` (stereo unspecified) yielded an inhibition of growth at 10 µM of 61%.
`O=C1C2C3c4ccccc4C(c4ccccc43)C2C(=O)N1CCCn1ccnc1` (stereo unspecified) was tested, and the inhibition of growth at 10 µM was 48%.
Work on `O=C1C2C3c4ccccc4C(c4ccccc43)C2C(=O)N1CCCN1C(=O)C2C3c4ccccc4C(c4ccccc43)C2C1=O` (stereo unspecified) yielded an inhibition of growth at 10 µM of 45%.
For `O=C1C2C3c4ccccc4C(c4ccccc43)C2C(=O)N1Nc1ccccc1` (stereo unspecified), the inhibition of growth at 10 µM was 52%.

Each molecule was assayed on PA-1 (assay: Cytotoxicity against Homo sapiens (human) PA1 cells assessed as growth inhibition at 10 uM after 48 hr by SRB assay). Settings: PA-1, 48 h, read-out: GI.
Type: functional
`O=C1C2C3c4ccccc4C(c4ccccc43)C2C(=O)N1CCCCN1C(=O)C2C3c4ccccc4C(c4ccccc43)C2C1=O` (stereo unspecified) showed an inhibition of growth at 10 µM of 37%.
Work on `O=C1C2C3c4ccccc4C(c4ccccc43)C2C(=O)N1CCN1CCCC1` (stereo unspecified) yielded an inhibition of growth at 10 µM of 36%.
`O=C1C2C3c4ccccc4C(c4ccccc43)C2C(=O)N1CC1CCNCC1` (stereo unspecified) was tested, and the inhibition of growth at 10 µM was 26%.
`O=C1C2C3c4ccccc4C(c4ccccc43)C2C(=O)N1Nc1ccccn1` (stereo unspecified) was tested, and the inhibition of growth at 10 µM was 13%.
In the case of `O=P1(N(CCCl)CCCl)NCCCO1` (stereo unspecified) [CYCLOPHOSPHAMIDE ANHYDROUS], the inhibition of growth at 10 µM is reported as 15%.
Work on `O=C1C2C3c4ccccc4C(c4ccccc43)C2C(=O)N1CN1CCOCC1` (stereo unspecified) yielded an inhibition of growth at 10 µM of 24%.
With `O=c1[nH]cc(F)c(=O)[nH]1` [FLUOROURACIL] the inhibition of growth at 10 µM was 18%.
In the case of `O=C1C2C3c4ccccc4C(c4ccccc43)C2C(=O)N1Cc1ccncc1` (stereo unspecified), the inhibition of growth at 10 µM is reported as 21%.
With `O=C1C2C3c4ccccc4C(c4ccccc43)C2C(=O)N1CCCn1ccnc1` (stereo unspecified) the inhibition of growth at 10 µM was 40%.
`O=C1C2C3c4ccccc4C(c4ccccc43)C2C(=O)N1CCCN1C(=O)C2C3c4ccccc4C(c4ccccc43)C2C1=O` (stereo unspecified) showed an inhibition of growth at 10 µM of 6%.
`O=C1C2C3c4ccccc4C(c4ccccc43)C2C(=O)N1Nc1ccccc1` (stereo unspecified) showed an inhibition of growth at 10 µM of 46%.

Each molecule was assayed on T47D (assay: Cytotoxicity against Homo sapiens (human) T47D cells assessed as growth inhibition at 10 uM after 48 hr by SRB assay). Settings: read-out: GI.
Type: functional
`O=C1C2C3c4ccccc4C(c4ccccc43)C2C(=O)N1CCCCN1C(=O)C2C3c4ccccc4C(c4ccccc43)C2C1=O` (stereo unspecified) gave an inhibition of growth at 10 µM of 19%.
Work on `O=C1C2C3c4ccccc4C(c4ccccc43)C2C(=O)N1CCN1CCCC1` (stereo unspecified) yielded an inhibition of growth at 10 µM of 7%.
Work on `O=C1C2C3c4ccccc4C(c4ccccc43)C2C(=O)N1CC1CCNCC1` (stereo unspecified) yielded an inhibition of growth at 10 µM of 17%.
With `O=C1C2C3c4ccccc4C(c4ccccc43)C2C(=O)N1Nc1ccccn1` (stereo unspecified) the inhibition of growth at 10 µM was 1%.
`O=P1(N(CCCl)CCCl)NCCCO1` (stereo unspecified) [CYCLOPHOSPHAMIDE ANHYDROUS] gave an inhibition of growth at 10 µM of 12%.
For `O=C1C2C3c4ccccc4C(c4ccccc43)C2C(=O)N1CN1CCOCC1` (stereo unspecified), the inhibition of growth at 10 µM was 20%.
`O=c1[nH]cc(F)c(=O)[nH]1` [FLUOROURACIL] showed an inhibition of growth at 10 µM of 10%.
In the case of `O=C1C2C3c4ccccc4C(c4ccccc43)C2C(=O)N1Cc1ccncc1` (stereo unspecified), the inhibition of growth at 10 µM is reported as 24%.
Molecule `O=C1C2C3c4ccccc4C(c4ccccc43)C2C(=O)N1CCCn1ccnc1` (stereo unspecified) has an inhibition of growth at 10 µM of 28%.
Work on `O=C1C2C3c4ccccc4C(c4ccccc43)C2C(=O)N1CCCN1C(=O)C2C3c4ccccc4C(c4ccccc43)C2C1=O` (stereo unspecified) yielded an inhibition of growth at 10 µM of 24%.
Work on `O=C1C2C3c4ccccc4C(c4ccccc43)C2C(=O)N1Nc1ccccc1` (stereo unspecified) yielded an inhibition of growth at 10 µM of 13%.

The molecules below were run on HCT-15 (assay: Cytotoxicity against Homo sapiens (human) HCT15 cells assessed as growth inhibition at 10 uM after 48 hr by SRB assay). Settings: HCT-15, 48 h, read-out: GI.
Type: functional
Work on `O=C1C2C3c4ccccc4C(c4ccccc43)C2C(=O)N1CCCCN1C(=O)C2C3c4ccccc4C(c4ccccc43)C2C1=O` (stereo unspecified) yielded an inhibition of growth at 10 µM of 26%.
`O=C1C2C3c4ccccc4C(c4ccccc43)C2C(=O)N1CCN1CCCC1` (stereo unspecified) gave an inhibition of growth at 10 µM of 14%.
`O=C1C2C3c4ccccc4C(c4ccccc43)C2C(=O)N1CC1CCNCC1` (stereo unspecified) was tested, and the inhibition of growth at 10 µM was 11%.
With `O=C1C2C3c4ccccc4C(c4ccccc43)C2C(=O)N1Nc1ccccn1` (stereo unspecified) the inhibition of growth at 10 µM was 4%.
`O=P1(N(CCCl)CCCl)NCCCO1` (stereo unspecified) [CYCLOPHOSPHAMIDE ANHYDROUS] showed an inhibition of growth at 10 µM of 5%.
Work on `O=C1C2C3c4ccccc4C(c4ccccc43)C2C(=O)N1CN1CCOCC1` (stereo unspecified) yielded an inhibition of growth at 10 µM of 22%.
`O=c1[nH]cc(F)c(=O)[nH]1` [FLUOROURACIL] was tested, and the inhibition of growth at 10 µM was 15%.
Work on `O=C1C2C3c4ccccc4C(c4ccccc43)C2C(=O)N1Cc1ccncc1` (stereo unspecified) yielded an inhibition of growth at 10 µM of 12%.
Work on `O=C1C2C3c4ccccc4C(c4ccccc43)C2C(=O)N1CCCn1ccnc1` (stereo unspecified) yielded an inhibition of growth at 10 µM of 30%.
`O=C1C2C3c4ccccc4C(c4ccccc43)C2C(=O)N1CCCN1C(=O)C2C3c4ccccc4C(c4ccccc43)C2C1=O` (stereo unspecified) gave an inhibition of growth at 10 µM of 27%.
`O=C1C2C3c4ccccc4C(c4ccccc43)C2C(=O)N1Nc1ccccc1` (stereo unspecified) gave an inhibition of growth at 10 µM of 11%.

Each molecule was assayed on NCI-H522 (assay: Cytotoxicity against Homo sapiens (human) NCI-H522 cells assessed as growth inhibition at 10 uM after 48 hr by SRB assay). Settings: NCI-H522, 48 h, read-out: GI.
Type: functional
`O=C1C2C3c4ccccc4C(c4ccccc43)C2C(=O)N1CCCCN1C(=O)C2C3c4ccccc4C(c4ccccc43)C2C1=O` (stereo unspecified) was tested, and the inhibition of growth at 10 µM was 23%.
With `O=C1C2C3c4ccccc4C(c4ccccc43)C2C(=O)N1CCN1CCCC1` (stereo unspecified) the inhibition of growth at 10 µM was 13%.
Molecule `O=C1C2C3c4ccccc4C(c4ccccc43)C2C(=O)N1CC1CCNCC1` (stereo unspecified) has an inhibition of growth at 10 µM of 25%.
`O=C1C2C3c4ccccc4C(c4ccccc43)C2C(=O)N1Nc1ccccn1` (stereo unspecified) showed an inhibition of growth at 10 µM of 27%.
`O=P1(N(CCCl)CCCl)NCCCO1` (stereo unspecified) [CYCLOPHOSPHAMIDE ANHYDROUS] was tested, and the inhibition of growth at 10 µM was 9%.
Work on `O=C1C2C3c4ccccc4C(c4ccccc43)C2C(=O)N1CN1CCOCC1` (stereo unspecified) yielded an inhibition of growth at 10 µM of 24%.
`O=c1[nH]cc(F)c(=O)[nH]1` [FLUOROURACIL] showed an inhibition of growth at 10 µM of 18%.
`O=C1C2C3c4ccccc4C(c4ccccc43)C2C(=O)N1Cc1ccncc1` (stereo unspecified) was tested, and the inhibition of growth at 10 µM was 27%.
Molecule `O=C1C2C3c4ccccc4C(c4ccccc43)C2C(=O)N1CCCn1ccnc1` (stereo unspecified) has an inhibition of growth at 10 µM of 32%.
Work on `O=C1C2C3c4ccccc4C(c4ccccc43)C2C(=O)N1CCCN1C(=O)C2C3c4ccccc4C(c4ccccc43)C2C1=O` (stereo unspecified) yielded an inhibition of growth at 10 µM of 17%.
Work on `O=C1C2C3c4ccccc4C(c4ccccc43)C2C(=O)N1Nc1ccccc1` (stereo unspecified) yielded an inhibition of growth at 10 µM of 52%.

These molecules were tested on Rattus norvegicus (assay: Anti-inflammatory activity against albino Charles Foster Rattus norvegicus (rat) assessed as inhibition of carrageenan-induced paw edema at 50 mg/kg, po administered 30 min prior to carrageenan injection measured after 1-3 hr by plethysmometer). Settings: not given.
Type: functional
Design: scale not given: the % may be the effect or the level left
`CC(C)Cc1ccc(C(C)C(=O)O)cc1` (stereo unspecified) [IBUPROFEN] gave an Activity of 39%.
In the case of `O=C1C2C3c4ccccc4C(c4ccccc43)C2C(=O)N1CCCCN1C(=O)C2C3c4ccccc4C(c4ccccc43)C2C1=O` (stereo unspecified), the Activity is reported as 25%.
`O=C1C2C3c4ccccc4C(c4ccccc43)C2C(=O)N1CCN1CCCC1` (stereo unspecified) was tested, and the Activity was 28%.
For `O=C1C2C3c4ccccc4C(c4ccccc43)C2C(=O)N1CC1CCNCC1` (stereo unspecified), the Activity was 35%.
For `O=C1C2C3c4ccccc4C(c4ccccc43)C2C(=O)N1Nc1ccccn1` (stereo unspecified), the Activity was 38%.
Molecule `O=C1C2C3c4ccccc4C(c4ccccc43)C2C(=O)N1CN1CCOCC1` (stereo unspecified) has an Activity of 39%.
Molecule `O=C1C2C3c4ccccc4C(c4ccccc43)C2C(=O)N1Cc1ccncc1` (stereo unspecified) has an Activity of 37%.
`O=C1C2C3c4ccccc4C(c4ccccc43)C2C(=O)N1CCCn1ccnc1` (stereo unspecified) gave an Activity of 27%.
With `O=C1C2C3c4ccccc4C(c4ccccc43)C2C(=O)N1CCCN1C(=O)C2C3c4ccccc4C(c4ccccc43)C2C1=O` (stereo unspecified) the Activity was 33%.
For `O=C1C2C3c4ccccc4C(c4ccccc43)C2C(=O)N1Nc1ccccc1` (stereo unspecified), the Activity was 11%.
`O=C1C2C3c4ccccc4C(c4ccccc43)C2C(=O)N1CCN1CCNCC1` (stereo unspecified) showed an Activity of 31%.
